PubChem BioAssay AID1918938 (Molecular Pharmacology Branch, DTP, NCI, 2023)

Tested on: 556581-035-R-J1-PDC complex spheroid viability
Test: Anticancer human tumor 556581-035-R-J1-PDC patient-derived ovarian carcinoma cell line growth inhibition
Conditions: for IC50: curve of first compound; for viability, T/C: stronger effect = lower value
How it was run: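 Multicellular complex spheroids of tumor cells with human endothelial cells (HUVEC) and mesenchymal stem cells; the LSD1 inhibitor iadademstat was combined with standard-of-care or investigational agents. Top concentration at or near clinical Cmax, half-log dilutions; final DMSO ≤0.25%.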

[1] = second compound 0.1 µM, first compound 0.0316 µM
[2] = second compound 0.1 µM, first compound 0.1 µM
[3] = second compound 0.1 µM, first compound 0.316 µM
[4] = second compound 0.1 µM, first compound 1 µM
[5] = second compound 0.1 µM, first compound 3.16 µM
[6] = second compound 0.1 µM, first compound 10 µM
[7] = second compound 0.316 µM, first compound 0.0316 µM
[8] = second compound 0.316 µM, first compound 0.1 µM
[9] = second compound 0.316 µM, first compound 0.316 µM
[10] = second compound 0.316 µM, first compound 1 µM
[11] = second compound 0.316 µM, first compound 3.16 µM
[12] = second compound 0.316 µM, first compound 10 µM
[13] = second compound 1 µM, first compound 0.0316 µM
[14] = second compound 1 µM, first compound 0.1 µM
[15] = second compound 1 µM, first compound 0.316 µM
[16] = second compound 1 µM, first compound 1 µM
[17] = second compound 1 µM, first compound 3.16 µM
[18] = second compound 1 µM, first compound 10 µM
[19] = second compound 3.16 µM, first compound 0.0316 µM
[20] = second compound 3.16 µM, first compound 0.1 µM
[21] = second compound 3.16 µM, first compound 0.316 µM
[22] = second compound 3.16 µM, first compound 1 µM
[23] = second compound 3.16 µM, first compound 3.16 µM
[24] = second compound 3.16 µM, first compound 10 µM
[25] = second compound 10 µM, first compound 0.0316 µM
[26] = second compound 10 µM, first compound 0.1 µM
[27] = second compound 10 µM, first compound 0.316 µM
[28] = second compound 10 µM, first compound 1 µM
[29] = second compound 10 µM, first compound 3.16 µM
[30] = second compound 10 µM, first compound 10 µM
[31] = second compound 0.1 µM, first compound 0.00316 µM
[32] = second compound 0.1 µM, first compound 0.01 µM
[33] = second compound 0.316 µM, first compound 0.00316 µM
[34] = second compound 0.316 µM, first compound 0.01 µM
[35] = second compound 1 µM, first compound 0.00316 µM
[36] = second compound 1 µM, first compound 0.01 µM
[37] = second compound 3.16 µM, first compound 0.00316 µM
[38] = second compound 3.16 µM, first compound 0.01 µM
[39] = second compound 10 µM, first compound 0.00316 µM
[40] = second compound 10 µM, first compound 0.01 µM
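Note: spheroids exposed to agents for seven days.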
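Throughout, for viability, T/C: 100% = DMSO vehicle control wells.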

Row | SMILES | IC50 (second compound 0.1 µM) [nM] | IC50 (second compound 0.316 µM) [nM] | IC50 (second compound 1 µM) [nM] | IC50 (second compound 3.16 µM) [nM] | IC50 (second compound 10 µM) [nM] | viability, T/C [1] [%] | viability, T/C [2] [%] | viability, T/C [3] [%] | viability, T/C [4] [%] | viability, T/C [7] [%] | viability, T/C [8] [%] | viability, T/C [9] [%] | viability, T/C [10] [%] | viability, T/C [13] [%] | viability, T/C [14] [%] | viability, T/C [15] [%] | viability, T/C [16] [%] | viability, T/C [19] [%] | viability, T/C [20] [%] | viability, T/C [21] [%] | also measured
1 | CC(C)c1c(-c2ccccc2)nc2c(C#N)c[nH]n2c1=O + NC1CC1c1ccc(-c2cccc(O)c2)cc1 | > 10000 | > 10000 | > 10000 | > 10000 | > 10000 | 100 | 103 | 95.8 | 89.3 | 90.6 | 82.5 | 86.4 | 85.2 | 96.4 | 101 | 79.7 | 76.5 | 85.6 | 82.5 | 84.8 | viability, T/C [5]: 88.8%; viability, T/C [6]: 64%; viability, T/C [11]: 73.6%; viability, T/C [12]: 79.9%; viability, T/C [17]: 69.8%; viability, T/C [18]: 60.2%; viability, T/C [22]: 86.7%; viability, T/C [23]: 77.9%; viability, T/C [24]: 69.3%; viability, T/C [25]: 92.6%; viability, T/C [26]: 91.2%; viability, T/C [27]: 89.4%; viability, T/C [28]: 75.4%; viability, T/C [29]: 66.1%; viability, T/C [30]: 59.6%
2 | CC1COCCN1c1cc(-c2ccnn2C)c2ccnc(-c3ccn[nH]3)c2n1 (stereo not given) + NC1CC1c1ccc(-c2cccc(O)c2)cc1 | 5.22 | 4.45 | 3.3 | 5.31 | 8.98 | 33.5 | 25.4 | 21.7 | 10.2 | 33.4 | 23.8 | 23 | 10.6 | 34.3 | 26.4 | 26.1 | 9.41 | 38.5 | 29.2 | 26.9 | viability, T/C [31]: 54.8%; viability, T/C [32]: 44%; viability, T/C [33]: 51.2%; viability, T/C [34]: 47.9%; viability, T/C [35]: 49.5%; viability, T/C [36]: 47.1%; viability, T/C [37]: 54.6%; viability, T/C [38]: 44.5%; viability, T/C [22]: 11%; viability, T/C [39]: 55.3%; viability, T/C [40]: 49.9%; viability, T/C [25]: 36.4%; viability, T/C [26]: 29.7%; viability, T/C [27]: 26%; viability, T/C [28]: 25.6%
3 | COc1ccc([C@@H](O)c2cc(-c3ncnc4cc(N5CCOCC5)ccc34)c(F)cc2Cl)nn1 + NC1CC1c1ccc(-c2cccc(O)c2)cc1 | 853 | 932 | 1000 | 621 | 1050 | 102 | 87 | 68.2 | 46.3 | 85.2 | 75.9 | 62.7 | 48.4 | 82.5 | 79.8 | 55.1 | 52.6 | 82.8 | 84.2 | 64.5 | viability, T/C [5]: 34.5%; viability, T/C [6]: 26.9%; viability, T/C [11]: 37.9%; viability, T/C [12]: 27.3%; viability, T/C [17]: 38.7%; viability, T/C [18]: 25.3%; viability, T/C [22]: 39.7%; viability, T/C [23]: 34%; viability, T/C [24]: 30.1%; viability, T/C [25]: 97.4%; viability, T/C [26]: 79.6%; viability, T/C [27]: 64.8%; viability, T/C [28]: 48.5%; viability, T/C [29]: 41.3%; viability, T/C [30]: 24.4%
4 | Nc1ncn(C2CC(O)C(CO)O2)c(=O)n1 (stereo not given) + NC1CCC(NC2CC2c2ccccc2)CC1 | > 1000 | > 1000 | > 1000 | > 1000 | > 1000 | 87.2 | 80 | 79.3 | 77.2 | 84 | 82.2 | 79.1 | 77.7 | 89.5 | 75.2 | 71.8 | 76.8 | 82.7 | 67.2 | 80.5 | viability, T/C [31]: 96%; viability, T/C [32]: 98%; viability, T/C [33]: 87.8%; viability, T/C [34]: 90.2%; viability, T/C [35]: 96.5%; viability, T/C [36]: 84.3%; viability, T/C [37]: 88.9%; viability, T/C [38]: 84.5%; viability, T/C [22]: 76.7%; viability, T/C [39]: 73.8%; viability, T/C [40]: 82.5%; viability, T/C [25]: 76.4%; viability, T/C [26]: 70.8%; viability, T/C [27]: 65.9%; viability, T/C [28]: 64.7%
